Legend:
Transporter, GABA = experiment: off-target screen panel; assay type: binding; details: Rat cerebral cortex, [^3H]GABA
67 non-PDE molecules = experiment: off-target screen panel, overall statement; assay type: binding; details: all 67 non-PDE molecules of the panel
Sodium Channel, Site 2 = experiment: off-target screen panel; assay type: binding; details: Rat brain, [^3H]Batrachotoxinin
Calcium Channel N-Type = biological target: T1, Calcium Channel N-Type (Rattus norvegicus, UniProt Q02294); experiment: off-target screen panel; assay type: binding; details: read-out: Inhibition (%) at 1 μM
T1 construct: purchased Eurofins Panlabs Discovery Services (Taiwan)

Solubility = assay type: physicochemical
Glutamate, NMDA, Agonism = experiment: off-target screen panel; assay type: binding; details: Rat cerebral cortex, [^3H]CGP-39653
[1] = test system: Glutamate, NMDA, Phencyclidine; experiment: off-target screen panel; assay type: binding; details: Rat cerebral cortex, [^3H]TCP
[2] = biological target: T2, Epidermal Growth Factor (EGF) (Homo sapiens, UniProt P00533); experiment: off-target screen panel; assay type: binding; details: Human A431 cells, [^125I]EGF
T2 construct: purchased Eurofins Panlabs Discovery Services (Taiwan)

Cannabinoid CB1 = biological target: T3, Cannabinoid CB1 (Homo sapiens, UniProt P21554); experiment: off-target screen panel; assay type: binding; details: Human recombinant, [^3H]SR141716A
T3 construct: purchased Eurofins Panlabs Discovery Services (Taiwan)

Dopamine D1 = biological target: T4, Dopamine D1 (Homo sapiens, UniProt P21728); experiment: off-target screen panel; assay type: binding; details: Human recombinant, [^3H]SCH-23390
T4 construct: purchased Eurofins Panlabs Discovery Services (Taiwan)

Glutamate, Kainate = experiment: off-target screen panel; assay type: binding; details: Rat brain cortex, [^3H]Kainic acid
GABAB1A = biological target: T5, GABAB1A (Homo sapiens, UniProt Q9UBS5); experiment: off-target screen panel; assay type: binding; details: Human recombinant, [^3H]CGP-54626
T5 construct: purchased Eurofins Panlabs Discovery Services (Taiwan)

Opiate δ1 (OP1, DOP) = biological target: T6, Opiate δ1 (OP1, DOP) (Homo sapiens, UniProt P41143); experiment: off-target screen panel; assay type: binding; details: Human recombinant, [^3H]Naltrindole
T6 construct: purchased Eurofins Panlabs Discovery Services (Taiwan)

Melatonin MT1 = biological target: T7, Melatonin MT1 (Homo sapiens, UniProt P48039); experiment: off-target screen panel; assay type: binding; details: Human recombinant, [^125I]2-Iodomelatonin
T7 construct: purchased Eurofins Panlabs Discovery Services (Taiwan)

Sigma σ1 = biological target: T8, Sigma σ1 (Homo sapiens, UniProt Q99720); experiment: off-target screen panel; assay type: binding; details: Human Jurkat cells, [^3H]Haloperidol
T8 construct: purchased Eurofins Panlabs Discovery Services (Taiwan)

Histamine H2 = biological target: T9, Histamine H2 (Homo sapiens, UniProt P25021); experiment: off-target screen panel; assay type: binding; details: Human recombinant, [^125I]Aminopotentidine
T9 construct: purchased Eurofins Panlabs Discovery Services (Taiwan)

[3] = biological target: T10, Leukotriene, Cysteinyl CysLT1 (Homo sapiens, UniProt Q9Y271); experiment: off-target screen panel; assay type: binding; details: Human recombinant, [^3H]LTD4
T10 construct: purchased Eurofins Panlabs Discovery Services (Taiwan)

[4] = test system: Calcium Channel L-Type, Benzothiazepine; experiment: off-target screen panel; assay type: binding; details: Rat brain, [^3H]Diltiazem
Androgen (Testosterone) = biological target: T11, Androgen (Testosterone) (Homo sapiens, UniProt P10275); experiment: off-target screen panel; assay type: binding; details: Human LNCaP clone, [^3H]Methyltrienolone
T11 construct: purchased Eurofins Panlabs Discovery Services (Taiwan)

Neuropeptide Y Y1 = biological target: T12, Neuropeptide Y Y1 (Homo sapiens, UniProt P25929); experiment: off-target screen panel; assay type: binding; details: Human SK-N-MC cells, [^125I]Peptide YY
T12 construct: purchased Eurofins Panlabs Discovery Services (Taiwan)

[5] = biological target: T13, Transporter, Dopamine (DAT) (Homo sapiens, UniProt Q01959); experiment: off-target screen panel; assay type: binding; details: Human recombinant, [^125I]RTI-55
T13 construct: purchased Eurofins Panlabs Discovery Services (Taiwan)

GABAA, Muscimol, Central = experiment: off-target screen panel; assay type: binding; details: Rat brain (minus cerebellum), [^3H]Muscimol
PDE7 [6] = experiment: In vitro autoradiography of monkey brain sections with [^11C]MTP38; assay type: binding, rhesus monkeys; details: [^11C]MTP38 2 nM, unlabeled MTP38 10 μM
Experimental: In vitro autoradiography was performed using 20-μm-thick fresh-frozen brain sections derived from Sprague-Dawley rats and rhesus monkeys. The sections were preincubated for 10 min in 50 mM Tris-HCl buffer (pH 7.4) at room temperature. These samples were then incubated for 60 min at room temperature in fresh buffer containing [^11C]MTP38 (2 nM) with or without unlabeled MTP38 (10 μM), MTP-X (4 μM), or MT-3014 (40 nM). The concentrations of MTP-X and MT-3014 were more than 400-fold of reported IC50 values of these agents. After the incubation, the brain sections were immersed twice in cold buffer for 3 min, dipped in cold distilled water for 10 s, and dried with warm airflow. Then the sections were contacted with imaging plates (BAS-MS2025, Fujifilm, Tokyo, Japan) for 60 min. The imaging plates were scanned with an imaging plate reader (BAS5000, Fujifilm, Tokyo, Japan), and the images were analyzed with the MultiGuage software (ver. 3.0, Fujifilm, Tokyo, Japan).

PDE7 [7] = experiment: PET imaging in rats with [^11C]MTP38; assay type: in vivo, Wistar rats; details: unlabeled MTP38 0.5 mg/kg intravenously 2 min before radioligand
Experimental: Each rat was scanned multiple times with a shortest interval of 1 month. Rats were anesthetized with isoflurane (3% for induction and 2% for maintenance) throughout the experiment. The tail vein was cannulated for radioligand injection. Body temperature was maintained at around 37 °C using a heating pad. The head of the rat was fixed at the center of the field of view of an animal PET scanner (microPET Focus220, Siemens Medical Solutions, Malvern, USA). A 90-min list-mode data acquisition was started simultaneously with intravenous administration of [^11C]MTP38. The list-mode data were sorted into 3D sinograms, which were then Fourier-rebinned into 2D sinograms (frames: 10 s × 6, 30 s × 8, 1 min × 5, 2 min × 10, and 5 min × 12). The sinograms were reconstructed with a filtered back-projection algorithm using a Hanning filter with a cut-off at the Nyquist frequency (0.5 mm^−1).
Along with baseline scans, we conducted blockade PET experiments according to the following pretreatment protocols: (1) unlabeled MTP38 (0.5 mg/kg) was administered intravenously at 2 min before radioligand injection, and (2) MTP-X (100 mg/kg) was administered orally at 1 h before radioligand injection.
PET images were co-registered manually onto the magnetic resonance (MR) template image. Details of co-registration were described elsewhere. Regions of interest (ROIs) were placed on the striatum as a target region and on the cerebellum (gray matter) as a reference region according to the expression of PDE7B mRNA in the rat brain [6], and time-activity curves (TACs) were generated for each ROI. Radioactivity in the brain was normalized with injected radioactivity and body weight, and expressed as standardized uptake value (SUV). Then the SUV ratio between the striatum and cerebellum was obtained to estimate the radioligand binding in the target region in baseline and blockade experiments.

T1 sequence (Q02294 whole entry): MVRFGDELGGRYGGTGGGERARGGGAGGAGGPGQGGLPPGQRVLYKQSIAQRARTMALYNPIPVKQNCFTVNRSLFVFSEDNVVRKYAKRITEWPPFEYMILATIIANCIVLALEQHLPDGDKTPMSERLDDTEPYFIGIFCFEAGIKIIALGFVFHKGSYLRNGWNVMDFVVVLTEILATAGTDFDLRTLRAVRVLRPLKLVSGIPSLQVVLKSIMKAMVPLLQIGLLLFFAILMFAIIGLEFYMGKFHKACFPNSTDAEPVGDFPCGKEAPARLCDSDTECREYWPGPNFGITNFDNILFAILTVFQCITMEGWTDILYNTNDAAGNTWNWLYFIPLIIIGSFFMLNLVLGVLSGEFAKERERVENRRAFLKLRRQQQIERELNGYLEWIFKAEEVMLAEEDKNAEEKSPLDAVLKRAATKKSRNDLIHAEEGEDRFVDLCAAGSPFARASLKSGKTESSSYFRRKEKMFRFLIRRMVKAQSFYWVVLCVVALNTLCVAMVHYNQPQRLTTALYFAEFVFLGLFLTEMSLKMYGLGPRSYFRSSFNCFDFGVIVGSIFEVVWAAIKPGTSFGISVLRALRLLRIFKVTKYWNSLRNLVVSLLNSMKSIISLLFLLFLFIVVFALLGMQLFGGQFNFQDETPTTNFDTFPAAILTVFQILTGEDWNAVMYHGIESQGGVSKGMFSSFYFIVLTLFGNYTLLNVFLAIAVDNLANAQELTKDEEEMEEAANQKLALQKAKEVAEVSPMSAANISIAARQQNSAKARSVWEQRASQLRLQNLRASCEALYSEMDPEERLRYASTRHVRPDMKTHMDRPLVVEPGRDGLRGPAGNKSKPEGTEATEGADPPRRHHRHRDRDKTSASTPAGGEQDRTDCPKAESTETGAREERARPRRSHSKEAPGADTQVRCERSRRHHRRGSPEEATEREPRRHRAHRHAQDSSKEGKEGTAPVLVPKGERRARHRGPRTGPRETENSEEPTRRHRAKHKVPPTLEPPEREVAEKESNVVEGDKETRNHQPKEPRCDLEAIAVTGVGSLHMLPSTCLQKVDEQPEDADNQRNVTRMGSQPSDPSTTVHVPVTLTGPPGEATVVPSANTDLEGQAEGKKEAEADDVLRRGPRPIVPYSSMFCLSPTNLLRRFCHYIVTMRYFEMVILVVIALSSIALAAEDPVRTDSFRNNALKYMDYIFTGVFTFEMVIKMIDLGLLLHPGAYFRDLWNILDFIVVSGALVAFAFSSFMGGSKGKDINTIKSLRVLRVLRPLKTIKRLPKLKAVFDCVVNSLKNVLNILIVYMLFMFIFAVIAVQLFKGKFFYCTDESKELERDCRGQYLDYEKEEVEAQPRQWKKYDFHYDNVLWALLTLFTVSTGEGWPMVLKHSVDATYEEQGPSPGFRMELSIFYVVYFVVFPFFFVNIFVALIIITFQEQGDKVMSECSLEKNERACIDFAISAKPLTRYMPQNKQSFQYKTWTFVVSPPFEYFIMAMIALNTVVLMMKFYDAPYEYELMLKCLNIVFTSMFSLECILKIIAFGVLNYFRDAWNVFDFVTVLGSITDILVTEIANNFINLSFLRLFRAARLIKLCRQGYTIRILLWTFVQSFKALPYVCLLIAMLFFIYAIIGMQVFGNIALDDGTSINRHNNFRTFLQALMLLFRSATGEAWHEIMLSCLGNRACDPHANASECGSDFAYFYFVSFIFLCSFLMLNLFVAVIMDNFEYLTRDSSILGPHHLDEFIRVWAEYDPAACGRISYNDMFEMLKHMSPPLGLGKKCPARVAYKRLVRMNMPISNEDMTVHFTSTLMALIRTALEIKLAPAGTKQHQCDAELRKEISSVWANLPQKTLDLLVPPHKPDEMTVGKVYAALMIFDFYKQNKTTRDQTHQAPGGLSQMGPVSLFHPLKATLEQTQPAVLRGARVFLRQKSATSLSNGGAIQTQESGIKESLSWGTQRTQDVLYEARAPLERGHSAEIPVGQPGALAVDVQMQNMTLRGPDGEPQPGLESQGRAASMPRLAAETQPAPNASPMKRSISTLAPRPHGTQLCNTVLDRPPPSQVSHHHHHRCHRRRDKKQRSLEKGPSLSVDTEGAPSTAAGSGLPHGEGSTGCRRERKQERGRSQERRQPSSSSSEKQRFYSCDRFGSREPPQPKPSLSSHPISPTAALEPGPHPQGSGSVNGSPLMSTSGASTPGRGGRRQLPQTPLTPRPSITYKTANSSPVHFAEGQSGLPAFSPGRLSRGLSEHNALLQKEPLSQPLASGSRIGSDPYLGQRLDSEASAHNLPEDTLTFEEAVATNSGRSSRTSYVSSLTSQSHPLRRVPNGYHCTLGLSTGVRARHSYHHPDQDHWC
T10 sequence (Q9Y271 whole entry): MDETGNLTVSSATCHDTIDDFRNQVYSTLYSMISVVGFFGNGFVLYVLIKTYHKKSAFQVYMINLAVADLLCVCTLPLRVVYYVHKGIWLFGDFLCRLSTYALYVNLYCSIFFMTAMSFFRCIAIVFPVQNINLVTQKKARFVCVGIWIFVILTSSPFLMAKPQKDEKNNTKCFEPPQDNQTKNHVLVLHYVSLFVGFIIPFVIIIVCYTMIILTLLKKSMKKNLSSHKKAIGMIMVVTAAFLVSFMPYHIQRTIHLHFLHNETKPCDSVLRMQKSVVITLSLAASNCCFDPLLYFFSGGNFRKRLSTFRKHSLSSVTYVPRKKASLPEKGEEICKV
T9 sequence (P25021 whole entry): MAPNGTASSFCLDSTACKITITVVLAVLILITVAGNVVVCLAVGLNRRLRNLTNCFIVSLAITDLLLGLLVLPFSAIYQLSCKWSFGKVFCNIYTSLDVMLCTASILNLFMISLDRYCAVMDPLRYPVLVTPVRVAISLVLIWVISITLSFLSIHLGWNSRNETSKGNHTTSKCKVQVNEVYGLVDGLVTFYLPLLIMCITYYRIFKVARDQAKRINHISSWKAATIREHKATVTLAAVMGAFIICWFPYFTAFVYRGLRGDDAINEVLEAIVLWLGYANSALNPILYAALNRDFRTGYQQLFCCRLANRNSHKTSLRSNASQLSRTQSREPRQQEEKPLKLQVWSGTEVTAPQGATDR
T13 sequence (Q01959 whole entry): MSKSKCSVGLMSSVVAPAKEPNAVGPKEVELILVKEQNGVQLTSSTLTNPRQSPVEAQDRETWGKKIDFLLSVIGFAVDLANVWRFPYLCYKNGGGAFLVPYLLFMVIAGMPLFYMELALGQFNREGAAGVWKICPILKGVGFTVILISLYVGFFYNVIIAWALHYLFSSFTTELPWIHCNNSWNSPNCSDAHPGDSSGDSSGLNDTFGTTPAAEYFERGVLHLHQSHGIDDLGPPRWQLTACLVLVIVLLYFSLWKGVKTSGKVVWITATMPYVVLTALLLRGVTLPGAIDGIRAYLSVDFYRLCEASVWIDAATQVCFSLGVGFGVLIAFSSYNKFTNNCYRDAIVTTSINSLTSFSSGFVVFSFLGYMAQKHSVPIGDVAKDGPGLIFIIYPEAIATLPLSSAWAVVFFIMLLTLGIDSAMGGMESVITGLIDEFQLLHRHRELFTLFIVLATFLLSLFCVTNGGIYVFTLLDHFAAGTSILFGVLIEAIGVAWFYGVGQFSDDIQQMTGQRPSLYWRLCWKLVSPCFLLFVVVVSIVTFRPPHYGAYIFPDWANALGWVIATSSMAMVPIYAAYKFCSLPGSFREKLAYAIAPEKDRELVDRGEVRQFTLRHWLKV
T3 sequence (P21554 whole entry): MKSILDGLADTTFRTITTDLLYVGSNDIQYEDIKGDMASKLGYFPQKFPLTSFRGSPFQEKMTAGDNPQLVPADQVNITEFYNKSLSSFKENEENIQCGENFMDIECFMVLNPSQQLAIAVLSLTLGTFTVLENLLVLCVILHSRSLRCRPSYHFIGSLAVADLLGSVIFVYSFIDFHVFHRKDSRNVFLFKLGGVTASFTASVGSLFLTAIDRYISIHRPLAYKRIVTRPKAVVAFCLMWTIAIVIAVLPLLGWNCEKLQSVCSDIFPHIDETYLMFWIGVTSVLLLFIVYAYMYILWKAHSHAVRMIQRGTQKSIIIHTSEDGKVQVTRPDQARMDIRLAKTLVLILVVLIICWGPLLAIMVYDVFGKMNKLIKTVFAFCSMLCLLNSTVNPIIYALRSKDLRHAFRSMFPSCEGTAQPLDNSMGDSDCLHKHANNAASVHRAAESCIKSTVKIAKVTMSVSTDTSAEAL
T4 sequence (P21728 whole entry): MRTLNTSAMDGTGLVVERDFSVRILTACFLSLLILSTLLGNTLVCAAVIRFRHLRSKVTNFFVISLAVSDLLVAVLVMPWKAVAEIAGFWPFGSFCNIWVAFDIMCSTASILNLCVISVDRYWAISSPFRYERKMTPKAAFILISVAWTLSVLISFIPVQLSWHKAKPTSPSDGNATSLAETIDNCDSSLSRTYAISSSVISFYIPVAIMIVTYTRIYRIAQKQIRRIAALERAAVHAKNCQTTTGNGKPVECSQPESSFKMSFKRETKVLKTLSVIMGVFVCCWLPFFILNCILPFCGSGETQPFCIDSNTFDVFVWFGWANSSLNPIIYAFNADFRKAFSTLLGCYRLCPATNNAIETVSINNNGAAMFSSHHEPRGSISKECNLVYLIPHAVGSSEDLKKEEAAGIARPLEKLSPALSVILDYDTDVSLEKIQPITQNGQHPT
T7 sequence (P48039 whole entry): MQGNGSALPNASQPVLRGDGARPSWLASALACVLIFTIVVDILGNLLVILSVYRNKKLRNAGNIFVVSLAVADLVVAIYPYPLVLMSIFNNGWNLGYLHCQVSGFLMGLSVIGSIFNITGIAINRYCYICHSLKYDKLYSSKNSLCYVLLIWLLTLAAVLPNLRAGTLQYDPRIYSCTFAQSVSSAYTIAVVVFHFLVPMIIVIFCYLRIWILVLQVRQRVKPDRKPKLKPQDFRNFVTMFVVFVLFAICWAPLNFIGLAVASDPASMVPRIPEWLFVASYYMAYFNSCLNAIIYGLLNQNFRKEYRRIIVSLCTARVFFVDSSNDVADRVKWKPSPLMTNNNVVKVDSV

With `C[C@@H]1CC[C@H](C)N(c2nnc3c(N)ncc(C#N)n23)C1` (relative stereo) [MTP38, 8-amino-3-(2S*,5R*-dimethyl-1-piperidyl)-[1,2,4]triazolo[4,3-a]pyrazine-5-carbonitrile] the “Inhibition (%) at 1 μM” value (Transporter, GABA) was -2%, the “inhibitions at 1 μM of the 67 non-PDE molecules tested” value (67 non-PDE molecules) was “less than 50%” and the “Inhibition (%) at 1 μM” value (Sodium Channel, Site 2) was 1%. For the same molecule, the inhibition at 1 µM (Calcium Channel N-Type) was 1%, the solubility (Solubility) was “low solubility” and the “Inhibition (%) at 1 μM” value (Glutamate, NMDA, Agonism) was -3%. For the same molecule, the “Inhibition (%) at 1 μM” value [1] was -5%, the inhibition at 1 µM [2] was 1% and the inhibition at 1 µM (Cannabinoid CB1) was -6%. For the same molecule, the inhibition at 1 µM (Dopamine D1) was -14%, the “Inhibition (%) at 1 μM” value (Glutamate, Kainate) was -2% and the inhibition at 1 µM (GABAB1A) was -10%. It also gave an inhibition at 1 µM (Opiate δ1 (OP1, DOP)) of -4%, an inhibition at 1 µM (Melatonin MT1) of 7% and an inhibition at 1 µM (Sigma σ1) of 6%. For the same molecule, the inhibition at 1 µM (Histamine H2) was -9%, the inhibition at 1 µM [3] was 4% and the “Inhibition (%) at 1 μM” value [4] was 16%. It also gave an inhibition at 1 µM (Androgen (Testosterone)) of 1%, an inhibition at 1 µM (Neuropeptide Y Y1) of -13% and an inhibition at 1 µM [5] of 22%. The “Inhibition (%) at 1 μM” value (GABAA, Muscimol, Central) was -10%, the “effect of blocker on striatal radioactivity of [^11C]MTP38” value (PDE7 [6]) was “reduced the striatal radioactivity” and the “striatum-to-cerebellum ratio of SUV of [^11C]MTP38 after pretreatment” value (PDE7 [7]) was “around 1.1”.
